Source: ChEMBL document CHEMBL3421544, “Design, synthesis and biological evaluation of pyridazino[3,4,5-de]quinazolin-3(2H)-one as a new class of PARP-1 inhibitors” (Bioorg Med Chem Lett, 2015)

Experiments:
[1] = test system: PC-12; test: Neuroprotective activity against H2O2 -mediated injury in rat PC12 cells assessed as cell survival at 0.01 uM relative to control; type: functional; conditions: read-out: Survival
[2] = test system: PC-12; test: Neuroprotective activity against H2O2 -mediated injury in rat PC12 cells assessed as cell survival at 1 uM relative to control; type: functional; conditions: read-out: Survival
[3] = test system: PC-12; test: Neuroprotective activity against H2O2 -mediated injury in rat PC12 cells assessed as cell survival at 0.1 uM relative to control; type: functional; conditions: read-out: Survival
[4] = target: Poly [ADP-ribose] polymerase 1 (Homo sapiens) (UniProt P09874); test: Inhibition of PARP1 (unknown origin) at 2.8 uM
Sequence of Poly [ADP-ribose] polymerase 1 (Homo sapiens) (P09874 whole entry): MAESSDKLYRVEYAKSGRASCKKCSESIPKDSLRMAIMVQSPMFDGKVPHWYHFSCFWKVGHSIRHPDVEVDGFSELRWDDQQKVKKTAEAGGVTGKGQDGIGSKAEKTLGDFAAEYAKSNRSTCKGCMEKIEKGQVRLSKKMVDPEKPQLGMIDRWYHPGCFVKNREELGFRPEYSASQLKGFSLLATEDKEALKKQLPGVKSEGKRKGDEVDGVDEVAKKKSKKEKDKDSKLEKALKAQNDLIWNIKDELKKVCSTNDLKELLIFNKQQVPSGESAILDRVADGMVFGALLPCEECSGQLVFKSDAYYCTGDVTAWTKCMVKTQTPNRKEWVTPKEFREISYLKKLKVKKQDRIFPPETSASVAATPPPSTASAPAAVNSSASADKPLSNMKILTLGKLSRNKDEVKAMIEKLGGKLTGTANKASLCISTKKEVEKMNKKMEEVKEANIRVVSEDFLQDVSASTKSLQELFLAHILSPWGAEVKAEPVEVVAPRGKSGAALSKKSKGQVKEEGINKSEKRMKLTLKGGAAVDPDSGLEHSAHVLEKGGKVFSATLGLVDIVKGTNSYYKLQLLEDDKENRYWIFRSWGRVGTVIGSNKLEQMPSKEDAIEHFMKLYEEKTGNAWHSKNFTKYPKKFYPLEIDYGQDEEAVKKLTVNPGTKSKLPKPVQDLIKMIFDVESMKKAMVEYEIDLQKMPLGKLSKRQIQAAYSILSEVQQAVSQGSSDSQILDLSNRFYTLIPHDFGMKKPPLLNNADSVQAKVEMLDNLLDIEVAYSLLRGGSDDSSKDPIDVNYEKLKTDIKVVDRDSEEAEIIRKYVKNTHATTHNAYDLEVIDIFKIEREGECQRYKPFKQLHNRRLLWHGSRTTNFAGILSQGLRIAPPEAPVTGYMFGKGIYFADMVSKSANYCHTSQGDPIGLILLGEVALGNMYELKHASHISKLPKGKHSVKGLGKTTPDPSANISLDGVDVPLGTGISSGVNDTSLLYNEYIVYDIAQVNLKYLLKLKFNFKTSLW

| Structure (SMILES) | viability at 0.01 µM [1] | viability at 1 µM [2] | viability at 0.1 µM [3] | inhibition [4] |
| --- | --- | --- | --- | --- |
| O=c1[nH]nc2c3c(cccc13)N=C(c1ccccc1)N2 | 81.6% | 88.5% | 98.2% | – |
| NC(=O)c1ccccc1 | – | – | – | 59.3% |
| COCCOC(=O)C1=C(C)NC(C)=C(C(=O)OC(C)C)C1c1cccc([N+](=O)[O-])c1 (stereo not drawn) [NIMODIPINE] | – | 90.4% | – | – |
| Cc1ccc(C2=Nc3cccc4c(=O)[nH]nc(c34)N2)cc1 | 70.9% | 98% | 97.2% | – |
